Experimental data: patent US20220323383A1, “SMALL-MOLECULAR ADJUVANTS AND IMPLEMENTATIONS THEREOF” (JAWAHARLAL NEHRU CENTRE FOR ADVANCED SCIENTIFIC RESEARCH, priority 2019, published 2022)
Structures can show the parent of a compound that is named as a salt.

Legend:
Type in all cases: cell-based
[1] = system: human RBCs; assay: Haemolytic activity; conditions: concentration at which 50% of human blood cells are lysed; 1 h at 37° C.
Method in brief: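 Human erythrocytes (5 vol % in PBS, pH 7.4) were incubated with serially diluted compound for 1 h at 37 °C, and A540 of the supernatant was read after centrifugation. Hemolysis was scaled between untreated (0%) and Triton X-100 (100%) wells. HC50 is the concentration lysing 50% of cells.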

[2] = system: A. baumannii R674; assay: Bactericidal time-kill kinetics; conditions: combination of rifampicin and Compound 13 (4 μg/mL+2 μg/mL and 8 μg/mL+2 μg/mL)
Procedure: (§1) Briefly, A. baumannii R674 and P. aeruginosa R590 were grown in nutrient broth at 37° C. for 6 h. Combinations of Compound 13 and rifampicin (4 μg/mL+2 μg/mL and 8 μg/mL+2 μg/mL) and rifampicin alone (32 μg/mL) were inoculated with aliquots of A. baumannii R674 suspended in fresh media at ˜1.8×10^5 CFU/mL. Similarly, combination of […] and fusidic acid (8 μg/mL+1 μg/mL), Compound 15 (128 μg/mL) and fusidic acid (16 μg/mL) were inoculated with aliquots of P. aeruginosa R590 suspended in fresh media at ˜1.8×10^5 CFU/mL. After specified time intervals (0, 1, 2, 4, 6 and 12 h), 20 μL aliquots were serially diluted 10-fold in 0.9% saline, plated on sterile MacConkey agar plates and incubated at 37° C. overnight. The viable colonies were counted the next day and represented as logio (CFU/mL) (FIG. 1). Combination of rifampicin and Compound 13 could completely kill the bacteria in 2 h and combination of fusidic acid and Compound 14 could kill bacteria in 12 h.

[3] = system: P. aeruginosa R590; assay: Bactericidal time-kill kinetics; conditions: combination with fusidic acid (8 μg/mL+1 μg/mL)
Procedure: as §1

Row | Structure (SMILES) | HC50 [1] | Time to completely kill the bacteria [2] | Time to kill bacteria [3]
1 | NCCCC[C@H](N)C(=O)NCCCCCCN(CCCCCCNC(=O)[C@@H](N)CCCCN)C(=O)Cc1cccc2ccccc12 [Compound 13, N,N-bis-[(6-(^LLys)amido)hexyl] naphthyl ethanamide tetrakistrifluoroacetate] | >1024 µg/mL | 2 h | –
2 | NCCCC[C@H](N)C(=O)NCCCCCCN(CCCCCCNC(=O)[C@@H](N)CCCCN)C(=O)CC(c1ccccc1)c1ccccc1 [Compound 14, N,N-bis-[(6-(^LLys)amido)hexyl] 3,3-diphenyl propanamide tetrakis trifluoroacetate] | >1024 µg/mL | – | 12 h
